{
  "source": "paper PMC10698032",
  "about": "“A monoacylglycerol lipase inhibitor showing therapeutic efficacy in mice without central side effects or dependence” (Nature Communications, 2023)",
  "key": {"[1]": {"target": "T1, MAGL (monoacylglycerol lipase) (Homo sapiens, UniProt Q99685, K36A/L169S/L176S)", "T1 construct": "gene MGLL; tag-free hMAGL (K36A, L169S, L176S), His6-TEV tag cleaved", "assay": "X-ray co-crystal structure (crystal soaking), […] Å", "format": "binding"}, "[2]": {"target": "T2, hormone-sensitive lipase (HSL) (Homo sapiens, UniProt Q05469)", "T2 construct": "gene LIPE; full-length, C-terminal FLAG-tag, expressed in HEK293T", "assay": "gel-based competitive ABPP (FP-TAMRA) on HEK293T membranes expressing human HSL", "format": "cell-based"}, "[3]": {"target": "T3, hormone-sensitive lipase (HSL) (Mus musculus, UniProt P54310)", "T3 construct": "gene Lipe; full-length, C-terminal FLAG-tag, expressed in HEK293T; endogenous in mouse tissue proteomes", "assay": "MS chemical proteomics on mouse tissues; gel-based competitive ABPP on recombinant mouse HSL", "format": "cell-based"}, "5-HT transporter (h)": {"target": "T4, 5-HT transporter (h) (Homo sapiens, UniProt P31645)", "T4 construct": "gene SLC6A4", "T4 sequence (P31645 whole entry)": "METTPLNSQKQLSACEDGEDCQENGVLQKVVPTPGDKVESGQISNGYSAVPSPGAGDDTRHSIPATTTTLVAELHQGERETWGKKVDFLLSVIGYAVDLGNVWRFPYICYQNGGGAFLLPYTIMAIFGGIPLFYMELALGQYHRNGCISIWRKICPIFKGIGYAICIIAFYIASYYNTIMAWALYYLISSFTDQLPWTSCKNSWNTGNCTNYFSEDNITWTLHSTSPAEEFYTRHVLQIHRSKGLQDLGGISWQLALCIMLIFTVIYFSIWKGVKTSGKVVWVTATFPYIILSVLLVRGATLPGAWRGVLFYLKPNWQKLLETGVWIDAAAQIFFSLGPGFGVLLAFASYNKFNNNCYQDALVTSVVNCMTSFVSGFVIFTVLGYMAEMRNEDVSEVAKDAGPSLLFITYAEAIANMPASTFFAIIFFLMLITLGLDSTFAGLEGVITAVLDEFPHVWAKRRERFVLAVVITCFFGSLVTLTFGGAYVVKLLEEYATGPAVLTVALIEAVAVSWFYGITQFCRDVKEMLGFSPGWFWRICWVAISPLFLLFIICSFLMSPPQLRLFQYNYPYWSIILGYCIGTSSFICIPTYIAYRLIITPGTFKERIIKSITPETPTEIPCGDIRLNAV", "assay": "biochemical", "design": "CEREP off-target panel, radioligand binding, inhibition of control specific binding", "conditions": "read-out: % Inhibition of Control Specific Binding, Mean"}, "[4]": {"target": "T5, Potassium Channel hERG (human) (Homo sapiens, UniProt Q12809)", "T5 construct": "gene KCNH2", "T5 sequence (Q12809 whole entry)": "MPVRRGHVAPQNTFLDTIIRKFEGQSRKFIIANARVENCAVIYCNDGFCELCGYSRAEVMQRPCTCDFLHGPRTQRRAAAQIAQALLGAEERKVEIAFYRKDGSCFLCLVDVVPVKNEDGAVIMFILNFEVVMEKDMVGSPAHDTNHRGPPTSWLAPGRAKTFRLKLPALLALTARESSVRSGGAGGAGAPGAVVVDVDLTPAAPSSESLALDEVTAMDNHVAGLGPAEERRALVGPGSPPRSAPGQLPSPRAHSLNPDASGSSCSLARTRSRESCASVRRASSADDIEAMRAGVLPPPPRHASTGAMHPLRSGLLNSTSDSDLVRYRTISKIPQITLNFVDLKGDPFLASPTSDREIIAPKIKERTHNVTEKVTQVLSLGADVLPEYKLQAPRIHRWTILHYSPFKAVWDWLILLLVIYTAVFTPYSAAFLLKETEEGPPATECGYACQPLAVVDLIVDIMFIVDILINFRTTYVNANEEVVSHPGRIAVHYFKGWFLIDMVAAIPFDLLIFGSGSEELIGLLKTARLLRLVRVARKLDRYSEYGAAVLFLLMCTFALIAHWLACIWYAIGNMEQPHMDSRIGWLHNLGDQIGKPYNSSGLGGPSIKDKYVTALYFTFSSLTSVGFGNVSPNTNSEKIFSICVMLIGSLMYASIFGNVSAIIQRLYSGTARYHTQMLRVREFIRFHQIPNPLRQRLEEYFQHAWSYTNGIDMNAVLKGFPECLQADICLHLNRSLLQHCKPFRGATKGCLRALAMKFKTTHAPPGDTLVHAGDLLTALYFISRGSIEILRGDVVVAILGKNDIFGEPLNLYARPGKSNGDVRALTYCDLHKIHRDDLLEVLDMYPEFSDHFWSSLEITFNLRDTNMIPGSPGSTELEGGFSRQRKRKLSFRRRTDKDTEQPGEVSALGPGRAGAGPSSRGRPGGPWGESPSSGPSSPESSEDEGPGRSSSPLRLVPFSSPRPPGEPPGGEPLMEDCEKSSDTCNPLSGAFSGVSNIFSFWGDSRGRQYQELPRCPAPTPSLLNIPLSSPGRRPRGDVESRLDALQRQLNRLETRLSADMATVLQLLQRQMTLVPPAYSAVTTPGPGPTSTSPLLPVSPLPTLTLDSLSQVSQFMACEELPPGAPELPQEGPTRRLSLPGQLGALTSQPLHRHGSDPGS", "assay": "in vitro", "design": "CEREP off-target panel, radioligand binding, inhibition of control specific binding", "conditions": "read-out: % Inhibition of Control Specific Binding, Mean", "description": "(§1) Mass spectrometry (MS)-based chemical proteomics experiments emulated these findings (Fig. 3d)."}, "dopamine transporter(h)": {"target": "T6, dopamine transporter(h) (Homo sapiens, UniProt Q01959)", "T6 construct": "gene SLC6A3", "assay": "biochemical", "design": "CEREP off-target panel, radioligand binding, inhibition of control specific binding", "conditions": "read-out: % Inhibition of Control Specific Binding, Mean", "description": "as §1"}, "[5]": {"target": "T7, norepinephrine transporter(h) (Homo sapiens, UniProt P23975)", "T7 construct": "gene SLC6A2", "T7 sequence (P23975 whole entry)": "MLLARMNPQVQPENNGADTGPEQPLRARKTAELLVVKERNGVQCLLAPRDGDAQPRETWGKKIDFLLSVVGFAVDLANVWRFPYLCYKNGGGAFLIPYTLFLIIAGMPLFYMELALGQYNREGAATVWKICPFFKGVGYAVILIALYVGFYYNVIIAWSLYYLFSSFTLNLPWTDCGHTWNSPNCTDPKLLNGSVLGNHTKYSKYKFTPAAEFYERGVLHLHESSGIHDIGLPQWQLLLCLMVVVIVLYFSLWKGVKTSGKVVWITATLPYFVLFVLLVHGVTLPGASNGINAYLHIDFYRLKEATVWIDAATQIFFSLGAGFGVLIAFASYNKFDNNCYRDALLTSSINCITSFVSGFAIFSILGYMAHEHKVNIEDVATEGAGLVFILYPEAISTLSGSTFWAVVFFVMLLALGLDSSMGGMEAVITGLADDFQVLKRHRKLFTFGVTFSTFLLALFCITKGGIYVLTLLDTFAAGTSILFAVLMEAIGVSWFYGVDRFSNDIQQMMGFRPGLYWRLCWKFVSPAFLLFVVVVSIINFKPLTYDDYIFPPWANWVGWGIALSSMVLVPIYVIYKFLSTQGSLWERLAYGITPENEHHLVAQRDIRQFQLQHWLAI", "assay": "biochemical", "design": "CEREP off-target panel, radioligand binding, inhibition of control specific binding", "conditions": "read-out: % Inhibition of Control Specific Binding, Mean", "description": "as §1"}, "[6]": {"target": "T8, 5-HT1B (h) (antagonist radioligand) (Homo sapiens, UniProt P28222)", "T8 construct": "gene HTR1B; antagonist radioligand", "assay": "biochemical", "design": "CEREP off-target panel, radioligand binding, inhibition of control specific binding", "conditions": "read-out: % Inhibition of Control Specific Binding, Mean"}, "[7]": {"target": "T9, 5-HT3(h) (antagonist radioligand) (Homo sapiens, UniProt P46098)", "T9 construct": "gene HTR3A; antagonist radioligand", "assay": "biochemical", "design": "CEREP off-target panel, radioligand binding, inhibition of control specific binding", "conditions": "read-out: % Inhibition of Control Specific Binding, Mean"}, "[8]": {"target": "T10, A2A(h) (agonist radioligand)` (Homo sapiens, UniProt P29274)", "T10 construct": "gene ADORA2A; agonist radioligand", "assay": "biochemical", "design": "CEREP off-target panel, radioligand binding, inhibition of control specific binding", "conditions": "read-out: % Inhibition of Control Specific Binding, Mean"}, "[9]": {"target": "T11, CB1(h) (agonist radioligand) (Homo sapiens, UniProt P21554)", "T11 construct": "gene CNR1; agonist radioligand", "assay": "biochemical", "design": "CEREP off-target panel, radioligand binding, inhibition of control specific binding", "conditions": "read-out: % Inhibition of Control Specific Binding, Mean"}, "[10]": {"target": "T12, CB2(h) (agonist radioligand) (Homo sapiens, UniProt P34972)", "T12 construct": "gene CNR2; agonist radioligand", "assay": "biochemical", "design": "CEREP off-target panel, radioligand binding, inhibition of control specific binding", "conditions": "read-out: % Inhibition of Control Specific Binding, Mean"}, "[11]": {"target": "T13, D1(h) (antagonist radioligand) (Homo sapiens, UniProt P21728)", "T13 construct": "gene DRD1; antagonist radioligand", "T13 sequence (P21728 whole entry)": "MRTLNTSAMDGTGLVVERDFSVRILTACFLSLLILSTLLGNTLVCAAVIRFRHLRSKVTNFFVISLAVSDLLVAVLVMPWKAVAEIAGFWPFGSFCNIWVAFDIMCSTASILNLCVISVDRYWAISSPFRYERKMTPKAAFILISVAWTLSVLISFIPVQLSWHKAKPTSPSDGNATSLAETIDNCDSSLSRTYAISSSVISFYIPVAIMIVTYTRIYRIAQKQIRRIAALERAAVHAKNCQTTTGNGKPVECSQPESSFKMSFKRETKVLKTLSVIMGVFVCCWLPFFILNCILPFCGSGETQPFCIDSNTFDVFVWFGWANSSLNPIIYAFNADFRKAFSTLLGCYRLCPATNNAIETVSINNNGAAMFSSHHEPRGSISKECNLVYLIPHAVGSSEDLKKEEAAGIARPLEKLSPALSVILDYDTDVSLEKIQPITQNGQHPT", "assay": "biochemical", "design": "CEREP off-target panel, radioligand binding, inhibition of control specific binding", "conditions": "read-out: % Inhibition of Control Specific Binding, Mean"}, "[12]": {"target": "T14, H1(h) (antagonist radioligand) (Homo sapiens, UniProt P35367)", "T14 construct": "gene HRH1; antagonist radioligand", "assay": "biochemical", "design": "CEREP off-target panel, radioligand binding, inhibition of control specific binding", "conditions": "read-out: % Inhibition of Control Specific Binding, Mean"}, "[13]": {"target": "T15, H2(h) (antagonist radioligand) (Homo sapiens, UniProt P25021)", "T15 construct": "gene HRH2; antagonist radioligand", "assay": "biochemical", "design": "CEREP off-target panel, radioligand binding, inhibition of control specific binding", "conditions": "read-out: % Inhibition of Control Specific Binding, Mean"}, "[14]": {"target": "T16, M1(h) (antagonist radioligand) (Homo sapiens, UniProt P11229)", "T16 construct": "gene CHRM1; antagonist radioligand", "assay": "biochemical", "design": "CEREP off-target panel, radioligand binding, inhibition of control specific binding", "conditions": "read-out: % Inhibition of Control Specific Binding, Mean"}, "[15]": {"target": "T17, M3(h) (antagonist radioligand) (Homo sapiens, UniProt P20309)", "T17 construct": "gene CHRM3; antagonist radioligand", "assay": "biochemical", "design": "CEREP off-target panel, radioligand binding, inhibition of control specific binding", "conditions": "read-out: % Inhibition of Control Specific Binding, Mean"}, "[16]": {"target": "T18, N neuronal α4β2 (h) (agonist radioligand) (Homo sapiens, UniProt P17787+P43681)", "T18 construct": "gene CHRNB2; agonist radioligand", "T18 sequence (P17787 whole entry)": "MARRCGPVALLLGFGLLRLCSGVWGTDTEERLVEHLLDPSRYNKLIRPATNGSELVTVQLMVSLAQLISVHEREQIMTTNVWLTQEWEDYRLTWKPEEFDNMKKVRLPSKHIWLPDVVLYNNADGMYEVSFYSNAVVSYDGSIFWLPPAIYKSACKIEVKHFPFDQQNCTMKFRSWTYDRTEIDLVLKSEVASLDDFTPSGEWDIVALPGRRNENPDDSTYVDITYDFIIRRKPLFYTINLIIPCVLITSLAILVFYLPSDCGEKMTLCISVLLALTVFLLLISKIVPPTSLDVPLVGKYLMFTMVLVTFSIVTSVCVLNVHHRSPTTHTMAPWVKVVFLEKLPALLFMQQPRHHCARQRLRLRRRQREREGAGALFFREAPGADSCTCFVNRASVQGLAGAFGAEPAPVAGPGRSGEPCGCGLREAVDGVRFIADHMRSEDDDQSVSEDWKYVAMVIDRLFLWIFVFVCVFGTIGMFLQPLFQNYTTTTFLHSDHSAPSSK", "T18 sequence (P43681 whole entry)": "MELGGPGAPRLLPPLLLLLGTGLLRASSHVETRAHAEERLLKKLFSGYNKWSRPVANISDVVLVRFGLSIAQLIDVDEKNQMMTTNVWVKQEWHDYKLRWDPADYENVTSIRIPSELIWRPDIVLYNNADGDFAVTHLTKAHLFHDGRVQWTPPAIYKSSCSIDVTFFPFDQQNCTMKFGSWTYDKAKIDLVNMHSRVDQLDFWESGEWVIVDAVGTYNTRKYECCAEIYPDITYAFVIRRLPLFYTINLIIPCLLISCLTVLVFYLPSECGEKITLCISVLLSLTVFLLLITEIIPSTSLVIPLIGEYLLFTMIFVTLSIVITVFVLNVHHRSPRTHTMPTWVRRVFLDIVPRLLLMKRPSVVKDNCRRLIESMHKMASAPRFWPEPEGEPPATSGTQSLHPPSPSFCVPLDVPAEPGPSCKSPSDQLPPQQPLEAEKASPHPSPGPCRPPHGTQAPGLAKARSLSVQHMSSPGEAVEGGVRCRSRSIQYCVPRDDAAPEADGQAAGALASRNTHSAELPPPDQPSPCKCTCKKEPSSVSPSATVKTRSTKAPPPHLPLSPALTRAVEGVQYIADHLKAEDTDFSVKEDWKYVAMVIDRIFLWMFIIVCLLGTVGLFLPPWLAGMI", "assay": "biochemical", "design": "CEREP off-target panel, radioligand binding, inhibition of control specific binding", "conditions": "read-out: % Inhibition of Control Specific Binding, Mean"}, "[17]": {"target": "T19, α1A(h) (antagonist radioligand) (Homo sapiens, UniProt P35348)", "T19 construct": "gene ADRA1A; antagonist radioligand", "assay": "biochemical", "design": "CEREP off-target panel, radioligand binding, inhibition of control specific binding", "conditions": "read-out: % Inhibition of Control Specific Binding, Mean"}, "[18]": {"target": "T20, α2A(h) (antagonist radioligand) (Homo sapiens, UniProt P08913)", "T20 construct": "gene ADRA2A; antagonist radioligand", "T20 sequence (P08913 whole entry)": "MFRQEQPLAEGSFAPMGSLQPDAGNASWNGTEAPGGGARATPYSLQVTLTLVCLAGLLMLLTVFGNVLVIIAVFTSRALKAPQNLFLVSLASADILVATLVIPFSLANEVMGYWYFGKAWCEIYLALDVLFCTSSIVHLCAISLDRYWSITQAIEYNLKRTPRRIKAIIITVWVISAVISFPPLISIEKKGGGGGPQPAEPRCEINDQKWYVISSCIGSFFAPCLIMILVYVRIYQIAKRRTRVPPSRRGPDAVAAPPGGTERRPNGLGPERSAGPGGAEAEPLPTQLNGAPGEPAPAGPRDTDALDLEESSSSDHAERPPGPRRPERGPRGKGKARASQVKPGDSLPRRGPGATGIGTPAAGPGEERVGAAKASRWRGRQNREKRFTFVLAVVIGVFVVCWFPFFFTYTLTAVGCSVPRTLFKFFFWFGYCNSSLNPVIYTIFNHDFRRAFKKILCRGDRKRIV", "assay": "biochemical", "design": "CEREP off-target panel, radioligand binding, inhibition of control specific binding", "conditions": "read-out: % Inhibition of Control Specific Binding, Mean"}, "[19]": {"target": "T21, β1(h) (agonist radioligand) (Homo sapiens, UniProt P08588)", "T21 construct": "gene ADRB1; agonist radioligand", "T21 sequence (P08588 whole entry)": "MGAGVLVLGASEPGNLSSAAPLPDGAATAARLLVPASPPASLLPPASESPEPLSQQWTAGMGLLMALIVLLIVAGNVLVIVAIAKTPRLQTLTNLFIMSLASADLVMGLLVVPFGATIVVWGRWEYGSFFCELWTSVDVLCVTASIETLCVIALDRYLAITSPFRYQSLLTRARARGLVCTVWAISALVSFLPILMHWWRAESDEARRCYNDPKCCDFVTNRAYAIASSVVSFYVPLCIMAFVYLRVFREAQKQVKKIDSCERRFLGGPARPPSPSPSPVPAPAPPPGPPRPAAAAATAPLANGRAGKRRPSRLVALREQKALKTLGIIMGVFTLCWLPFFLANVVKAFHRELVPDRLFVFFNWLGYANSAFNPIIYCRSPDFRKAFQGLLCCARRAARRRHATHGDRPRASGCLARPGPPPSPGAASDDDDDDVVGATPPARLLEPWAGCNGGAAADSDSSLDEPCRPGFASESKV", "assay": "biochemical", "design": "CEREP off-target panel, radioligand binding, inhibition of control specific binding", "conditions": "read-out: % Inhibition of Control Specific Binding, Mean"}, "[20]": {"target": "T22, MAGL (monoacylglycerol lipase) (Mus musculus, UniProt O35678)", "T22 sequence (O35678 1-303)": "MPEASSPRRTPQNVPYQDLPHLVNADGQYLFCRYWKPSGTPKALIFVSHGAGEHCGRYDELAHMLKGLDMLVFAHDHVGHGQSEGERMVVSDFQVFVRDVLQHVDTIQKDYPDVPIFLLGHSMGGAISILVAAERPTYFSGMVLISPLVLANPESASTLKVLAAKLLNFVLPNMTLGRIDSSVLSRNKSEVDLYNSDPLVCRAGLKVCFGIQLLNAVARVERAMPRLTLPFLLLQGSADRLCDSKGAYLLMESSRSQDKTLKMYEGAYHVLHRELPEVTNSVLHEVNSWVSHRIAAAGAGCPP", "assay": "gel-based competitive ABPP (FP-TAMRA, MB064) in mouse brain membrane proteome", "format": "biochemical", "design": "gene Mgll; endogenous, mouse brain proteome"}},
  "data": [
    {"compound": "CCC(F)(F)C(=O)C[S+]([O-])c1ccc(C(=O)N2CCN(c3cccc(Cl)c3)[C@@H](C)[C@@H]2C)cc1Cl", "note": "(mixture of isomers) [compound 3, LEI-515]", "values": [
      {"measurement": "X-ray co-crystal structure (crystal soaking), 1.55 Å", "setting": "[1]", "result": "LEI-515 was covalently attached to the catalytic Ser122 residue through its electrophilic carbonyl group as a deprotonated hemiketal"},
      {"measurement": "gel-based competitive ABPP (FP-TAMRA) on HEK293T membranes expressing human HSL", "setting": "[2]", "result": "confirmed by gel-based ABPP experiments using membrane fractions of HEK293T cells expressing recombinant human or mouse HSL"},
      {"measurement": "MS chemical proteomics on mouse tissues; gel-based competitive ABPP on recombina", "setting": "[3]", "result": "hormone-sensitive lipase (HSL) was identified as main off-target in lung, liver, and brain"},
      {"measurement": "inhibition at 10 µM", "setting": "5-HT transporter (h)", "result": 4.2, "unit": "%"},
      {"measurement": "inhibition at 10 µM", "setting": "[4]", "result": 5.8, "unit": "%"},
      {"measurement": "inhibition at 10 µM", "setting": "dopamine transporter(h)", "result": 45.2, "unit": "%"},
      {"measurement": "inhibition at 10 µM", "setting": "[5]", "result": 25.3, "unit": "%"},
      {"measurement": "inhibition at 10 µM", "setting": "[6]", "result": 24.2, "unit": "%"},
      {"measurement": "inhibition at 10 µM", "setting": "[7]", "result": -8.1, "unit": "%"},
      {"measurement": "inhibition at 10 µM", "setting": "[8]", "result": 11.7, "unit": "%"},
      {"measurement": "inhibition at 10 µM", "setting": "[9]", "result": 22.3, "unit": "%"},
      {"measurement": "inhibition at 10 µM", "setting": "[10]", "result": -11.9, "unit": "%"},
      {"measurement": "inhibition at 10 µM", "setting": "[11]", "result": 6.2, "unit": "%"},
      {"measurement": "inhibition at 10 µM", "setting": "[12]", "result": 8.1, "unit": "%"},
      {"measurement": "inhibition at 10 µM", "setting": "[13]", "result": -26, "unit": "%"},
      {"measurement": "inhibition at 10 µM", "setting": "[14]", "result": -29.5, "unit": "%"},
      {"measurement": "inhibition at 10 µM", "setting": "[15]", "result": -19.9, "unit": "%"},
      {"measurement": "inhibition at 10 µM", "setting": "[16]", "result": -10.5, "unit": "%"},
      {"measurement": "inhibition at 10 µM", "setting": "[17]", "result": 3.5, "unit": "%"},
      {"measurement": "inhibition at 10 µM", "setting": "[18]", "result": 18.3, "unit": "%"},
      {"measurement": "inhibition at 10 µM", "setting": "[19]", "result": 6.6, "unit": "%"},
      {"measurement": "IC50", "setting": "[20]", "result": 25, "unit": "nM"}
    ]}
  ]
}
